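Protocol summary: plate cells (96-well), add compound at 5 concentrations, incubate 48 h, interpolate endpoints linearly. TGI marks complete inhibition of growth.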 Where a SMILES comes first, the peptide text is derived from it. The star is where a group is joined. Boc = CC(C)(C)OC(=O)*; Bz = O=C(c1ccccc1)*
Columns and labels:
Assay in all cases: NCI anticancer screen, dose series, 48 h
MDA-MB-231 breast = tested on: MDA-MB-231 breast
NCI/ADR-RES ovarian = tested on: NCI/ADR-RES ovarian
SK-MEL-5 melanoma = tested on: SK-MEL-5 melanoma
SK-MEL-2 melanoma = tested on: SK-MEL-2 melanoma
SF-295 CNS = tested on: SF-295 CNS
LOX IMVI melanoma = tested on: LOX IMVI melanoma
BT-549 breast = tested on: BT-549 breast
EKVX NSCLC = tested on: EKVX NSCLC
MALME-3M melanoma = tested on: MALME-3M melanoma
NCI-H23 lung = tested on: NCI-H23 lung
UACC-257 melanoma = tested on: UACC-257 melanoma
HCT-15 colon = tested on: HCT-15 colon
HOP-62 NSCLC = tested on: HOP-62 NSCLC
SNB-19 CNS = tested on: SNB-19 CNS
ACHN renal = tested on: ACHN renal
K-562 leukemia = tested on: K-562 leukemia
SF-268 CNS = tested on: SF-268 CNS
SNB-75 CNS = tested on: SNB-75 CNS
OVCAR-4 ovarian = tested on: OVCAR-4 ovarian
CAKI-1 renal = tested on: CAKI-1 renal

| Structure (SMILES) | TGI (MDA-MB-231 breast) [µM] | TGI (NCI/ADR-RES ovarian) [µM] | TGI (SK-MEL-5 melanoma) [µM] | TGI (SK-MEL-2 melanoma) [µM] | TGI (SF-295 CNS) [µM] | TGI (LOX IMVI melanoma) [µM] | TGI (BT-549 breast) [µM] | TGI (EKVX NSCLC) [µM] | TGI (MALME-3M melanoma) [µM] | TGI (NCI-H23 lung) [µM] | TGI (UACC-257 melanoma) [µM] | TGI (HCT-15 colon) [µM] | TGI (HOP-62 NSCLC) [µM] | TGI (SNB-19 CNS) [µM] | TGI (ACHN renal) [µM] | TGI (K-562 leukemia) [µM] | TGI (SF-268 CNS) [µM] | TGI (SNB-75 CNS) [µM] | TGI (OVCAR-4 ovarian) [µM] | TGI (CAKI-1 renal) [µM] |
| --- | --- | --- | --- | --- | --- | --- | --- | --- | --- | --- | --- | --- | --- | --- | --- | --- | --- | --- | --- | --- |
| CCCCCC(C)(C)CCC(=O)OC1OC(COC2OC(COC3OC(CO)C(O)C(O)C3O)C(O)C(O)C2O)C(O)C(O)C1O (stereo not drawn) | > 100 | > 100 | > 100 | > 100 | > 100 | > 100 | > 100 | > 100 | > 100 | > 100 | > 100 | > 100 | > 100 | > 100 | > 100 | > 100 | > 100 | – | – | – |
| Nc1ccc(S(=O)(=O)Nc2nnc(S(N)(=O)=O)s2)cc1 | > 100 | > 100 | – | – | > 100 | > 100 | > 100 | > 100 | > 100 | > 100 | – | > 100 | – | > 100 | > 100 | – | > 100 | > 100 | > 100 | > 100 |
| CC(=O)ON(C(C)=O)c1ccc(-c2nc3ccccc3s2)cc1 | > 91.5 | 39.9 | 89.9 | 67.1 | > 76.4 | > 66.7 | > 100 | 65.2 | 30.5 | > 90.8 | > 83.5 | > 68.4 | > 55.8 | > 100 | 50.4 | > 100 | > 100 | > 89.9 | > 100 | – |
| COC(=O)CCc1cc(OC)c(O)c(C(Cc2ccc(OC)c(OC)c2)C(=O)OC)c1 (stereo not drawn) | > 100 | > 100 | > 100 | > 100 | > 100 | > 100 | > 100 | > 100 | > 100 | > 100 | > 100 | > 100 | > 100 | > 100 | > 100 | > 100 | > 100 | > 100 | > 100 | – |
| CC(NC(=O)C(Cc1ccc(OC(=O)c2ccccc2)cc1)NC(=O)OC(C)(C)C)C(=O)NC(Cc1ccccc1)C(=O)NCC(N)=O (stereo not drawn) (Boc-Y(Bz)AFG-NH2; configuration not given here) | 36.5 | > 100 | 81.7 | 35.6 | 40.1 | 49.5 | 37.4 | – | 42 | 45.9 | 37 | > 100 | 31.4 | 36.5 | 54.6 | 57.4 | 43 | 49.6 | 47.2 | > 100 |
| O=c1sc2c(s1)SSSSS2 | > 50 | > 50 | > 50 | > 50 | > 50 | > 50 | > 50 | > 50 | > 50 | > 50 | > 50 | > 50 | > 50 | > 50 | > 50 | > 50 | > 50 | – | > 50 | > 50 |

From PubChem BioAssay (NCI)
